The source of these data is patent publication US10792268B2, “Methods of sustaining dietary ketosis and its effects on lipid profile” (priority 2014, dated 2020).

Structures are written as SMILES. Marks after values point to notes of the source that are not given here.

Holding throughout (type): in vivo, Sprague-Dawley rats
Series [1] is described as follows: Lipid panel (total cholesterol, HDL, triglycerides) at week 0 and week 4. To be noted: rats, after 4-week chronic dosage, 5 g/kg. The protocol: (§1) Adult male Sprague-Dawley rats (n=74), 275-325 grams, were obtained from Harlan, and randomly assigned to the following groups: control (water), R,S-1,3-butanediol (BD), or R,S-1,3-butanediol acetoacetate diester (KE). Rats were treated daily with 5 g/kg intragastric gavage of BD or KE for days 1-28. Animals were weighed once per week to maintain accurate dosage using the Mittler Toledo SB16001 scales. Gavage was given between 10 am-1 pm daily to eliminate variance based on regular eating patterns. Diets were not restricted for this study.
(§2) Once a week, animals were fasted, with water still available for 4 hours prior to intragastric gavage to eliminate blood glucose and ketone variance of regular eating habits. Whole blood samples (10 μl) were acquired from the saphenous vein for analysis of glucose and βHB utilizing the commercially available glucose and ketone monitoring system Precision Xtra™ (Abbott Laboratories, Abbott Park, Ill.) at time 0, 0.5, 1, 4, 8, and 12 hours after test substance administration, or until βHB returned to baseline. On Day 0 (Week 0) and Day 28 (Week 4), whole blood samples (10 μL) were acquired for analysis of total cholesterol, HDL, and triglycerides for a lipid panel utilizing the commercially available home cholesterol analyzer Cardio Chek™ (Polymer Technology Systems, Inc., Indianapolis, Ind.) at time 0.

Series [2] is described as follows: Blood glucose levels after intragastric gavage of ketone supplements. To be noted: rats; for blood glucose levels, overall over the 4 weeks: 5 g/kg gavage daily; for blood glucose levels, week 1: FIG. 4(B). The method, then:
as §1, §2

Series [3] can be described thus: Blood ketone (βHB) levels after intragastric gavage of ketone supplements. To be noted: rats; for duration of elevated blood ketones (starting at 30 min): 5 g/kg for all four weeks. The method, then:
as §1, §2

The nature of series [4]: Harvested organ weights at week 4. To be noted: rats, versus control; for liver weight: week 4 harvested organs. The protocol: Animals treated from Example 1 were sacrificed by CO2 between 4-8 hours after gavage-treatment at the end of 4 weeks (28 days at the dose of 5-10 g/kg), which were determined to be peak ketone elevation. Brain, Lungs, Liver, Kidneys, Spleen and Heart were harvest and weighed using AWS-1000 1 kg portable digital scale (AWS, Charleston, S.C.). Organs were then either flash frozen in liquid nitrogen or preserved in paraformaldehyde for future analysis.

A further series has as its system hepatocyte cell nuclei. Briefly: Liver histology (H&E stain) after 28 days of ketone supplementation. To be noted: for fat deposits in liver sections / hepatocyte nucleus number, maximum / hepatocyte nucleus number, minimum / number of RBCs and capillaries in liver sections compared to control / hepatocyte nucleus number, average: rats, 28 days gavage at maximum tolerable dose (5-10 g/kg); for number of RBCs and capillaries in liver sections compared to control: data not shown; for hepatocyte nucleus number, average: minimum 5 images/animal, 5 animals/group; for hepatocyte nucleus number, significance (p, unpaired t-test versus control): significant if p < 0.05. The protocol: Livers from rats administered maximum tolerable dose of ketone supplementation were assessed via histology. The livers from rats treated 4-weeks with ketone supplementation appeared normal in color, size and texture in all groups upon harvesting. The livers were sectioned for histology and stained with Hematoxylin and Eosin (H&E stain), and analyzed by a trained pathologist to assess histopathological changes, including changes in liver cytoarchitecture, presence of steatosis, steatofibrosis, cell nuclei density, capillary density, presence of red blood cells (RBCs) and signs of inflammatory processes (e.g. macrophages).
The representative images are liver sections of Sprague-Dawley that were gavaged daily with water; 1,3-butanediol (BD); Ketone Ester (KE);) for 28 days at the maximum tolerable dose (5-10 g/kg). […] It should be noted that 1,3-butanediol has alcohol-like properties and requires hepatocytes to enzymatically metabolize the di-alcohol through cytosolic alcohol dehydrogenase and the induction of cytochrome p450 enzymes for conversion to βHB. The processes are associated with an increase in liver metabolism and blood flow, possibly resulting in greater number of RBCs and capillaries. There was also a modest, but statistically significant increase in hepatocyte cell nuclei, seen in Table 2, although no indications of liver damage, inflammation, fibrosis or presence of Mallory-Denk bodies were observed.

The nature of series [5]: Change of body weight over 4 weeks of ketone supplementation. To be noted: rats, 5 g/kg gavage daily, weekly weighing over 4 weeks. The method, then:
as §1
Animal weights were obtained weekly (Mittler Toledo SB16001 scales).

A short description of series [6]: Global metabolic profiling of serum and hippocampus (GC/MS and LC/MS/MS) after 28-day treatment. To be noted: rats. The protocol:
Rats were treated as described in Example 1, and brain and serum samples were extracted and prepared for analysis using a standard solvent extraction method (Metabolon Inc., Durham, N.C.) at 28 days after initiation of treatment. The extracted samples were split into equal parts for analysis on the GC/MS and LC/MS/MS platforms. Instrument variability was determined by calculating the median relative standard deviation (RSD) for the internal standards that were added to each sample prior to injection into the mass spectrometers.
A total of 388 and 290 compounds were identified in serum and hippocampus samples, respectively. […] The less robust changes in the hippocampal tissue may have been due to the time frame needed to dissect the hippocampal tissue from the brain prior to flash freezing (2-4 minutes). Random Forest (RF) is a supervised classification technique reporting on the consensus of a large number of decision trees. In this study, the serum and hippocampus profiles of animals subjected to different dietary treatments were classified in order to: 1) assess the capacity to distinguish between dietary treatment on the basis of global metabolic profiles and 2) identify biochemicals important to the classification. A classification accuracy of 33% is expected by random chance when comparing three groups. For this study, classification of serum and hippocampus samples was 100% and 83% accurate, respectively, in correctly categorizing samples into their proper groups. […] In serum, the biochemical key to classifying the groups included biomarkers related to ketones, energy metabolites, medium-chain fatty acids, and ketones were key factors for hippocampal group classification.

The mark [7] stands for this setting: 5 g/kg gavage, FIG. 3 (text: week 6; legend: week 4).

As to `C[C@H](O)CCO` [BD, R,S-1,3-butanediol], the “Triglyceride levels at week 4” value in series [1] is “mildly elevated”. Further, the “blood glucose levels, overall over the 4 weeks” value in series [2] is on record as “did not appear to drastically affect glucose levels”. In addition, the “blood glucose levels, week 1” value in series [2] (5 g/kg gavage) is reported as “non-significant reduction”. Besides, the “duration of elevated blood ketones (starting at 30 min)” value in series [3] stood at 8 h. The “ketone bodies, peak at 4 hours” value in series [3] (5 g/kg gavage, FIG. 1(A), week 0) was 1.0 mM/L. Also, in series [3] (setting [7]), the “ketone bodies, initial peak at 30 minutes” value is on record as “around 0.8 mM/L” and the “ketone bodies, second peak at 8 hours” value is “around 0.8 mM/L”. Besides, the “time of ketone body peak after treatment” value in series [3] (5 g/kg intragastric gavage daily, overall trend) came out at 30 min. Moreover, the non-liver organ weight result in series [4] (week 4 harvested organs (brain, lungs, kidneys, spleen, heart)) is “no significant change in non-liver organ weight”. Also, the liver weight result in series [4] is recorded as “not a significant change in liver weight”. Also, in the series with hepatocyte cell nuclei, the “fat deposits in liver sections” value is reported as “the most prevalence of fat deposition”; the “hepatocyte nucleus number, maximum” value is recorded as 120; the “hepatocyte nucleus number, minimum” value was 70; the “number of RBCs and capillaries in liver sections compared to control” value is “trend for greater number of RBCs and capillaries”. Also, in the series on hepatocyte cell nuclei, the “hepatocyte nucleus number, average” value is given as 93.56 and the “hepatocyte nucleus number, significance (p, unpaired t-test versus control)” value worked out at 0.585. Further, in the series on hepatocyte cell nuclei (listed as BE), the “fat deposits in liver sections” value is listed as “evident”. Moreover, the “body weight increase versus control” value in series [5] was “modestly decreased body weight increases”.
In the case of `CC(=O)CC(=O)OCCC(C)OC(=O)CC(C)=O` (centres unmarked) [KE, R,S-1,3-butanediol acetoacetate diester], the “Triglyceride levels at week 4” value in series [1] is “little change”. Besides, in series [6] (5 g/kg, 28 days, blood serum), the “alpha-ketoglutarate, metabolite ratio relative to a standard diet (SD) alone” value was 1.98^a; the “citrate, metabolite ratio relative to a standard diet (SD) alone” value was 1.99^a; the “fumarate, metabolite ratio relative to a standard diet (SD) alone” value was 1.92^a; the “malate, metabolite ratio relative to a standard diet (SD) alone” value is 2.03^a. Further, the “succinate, metabolite ratio relative to a standard diet (SD) alone” value in series [6] (5 g/kg, 28 days, blood serum) was 1.25. Further, the “brain ketone levels, elevation with respect to controls” value in series [6] (28-day treatment, hippocampus, FIG. 16) is greater than 2 fold. In addition, the “serum ketone levels, elevation with respect to controls” value in series [6] (28-day treatment, serum, FIG. 15) is recorded as greater than 15 fold. The “blood glucose levels, overall over the 4 weeks” value in series [2] is “reductions in glucose levels began at 30 minutes after treatment through 4 hours”. The “blood glucose levels, week 0” value in series [2] (5 g/kg gavage, FIG. 4(A)) is recorded as “reduction in glucose levels by 1 hour after treatment”. The “blood glucose levels, week 1” value in series [2] (5 g/kg gavage) is on record as “continued the trend”. For the same compound, in series [2] (5 g/kg gavage, FIG. 5(A)), the “blood glucose levels, week 2” value is on record as “enhanced reduction in glucose”. Moreover, in series [2] (5 g/kg gavage, FIG. 5(B)), the “blood glucose levels, week 3” value was “moderate reductions at 4 hours after treatment”. In series [2] (5 g/kg gavage, FIG. 6), the “blood glucose levels, week 4” value is on record as “reduced glucose levels through 4 hours after treatment”. The “duration of elevated blood ketones (starting at 30 min)” value in series [3] was found to be 8 h. The liver weight entry in series [4] was “statistically significant reduction in liver weight”. For the same compound, in the series with hepatocyte cell nuclei, the “fat deposits in liver sections” value was “evident”; the “hepatocyte nucleus number, maximum” value amounted to 141; the “hepatocyte nucleus number, minimum” value is on record as 83; the “number of RBCs and capillaries in liver sections compared to control” value is “trend for greater number of RBCs and capillaries”. Moreover, in the series with hepatocyte cell nuclei, the “hepatocyte nucleus number, average” value is given as 107.80^a and the “hepatocyte nucleus number, significance (p, unpaired t-test versus control)” value came out at 0.002. Further, the “body weight increase versus control” value in series [5] is listed as “further reduced weight gains compared to BD treatment”.
